Laboratory results reported in US20100086513A1, “Method for Effecting Antimicrobial Activity Using Polyamine Analogues” (priority 2008, published 2010).
Converted amounts (≈) assume the structure as drawn.

What was measured:
[1] = tested on: E. coli K12 cells + pBR322; type: cell-based, Escherichia coli
E. coli K12 = type: cell-based, Escherichia coli
Y. pestis KIM6+ [2] = type: cell-based, Yersinia pestis
Y. pestis KIM6+ [3] = type: cell-based, Yersinia pestis; remark: listed apart in the source

SMILES: CC[C@H](C)[C@H](NC(=O)CN)C(=O)NCC(=O)N[C@@H](C)C(=O)N[C@H](C(=O)N[C@@H](CC(C)C)C(=O)N[C@@H](CCCCN)C(=O)N[C@H](C(=O)N[C@@H](CC(C)C)C(=O)N[C@H](C(=O)N[C@H](C(=O)NCC(=O)N[C@@H](CC(C)C)C(=O)N1CCC[C@H]1C(=O)N[C@@H](C)C(=O)N[C@@H](CC(C)C)C(=O)N[C@H](C(=O)N[C@@H](CO)C(=O)N[C@@H](Cc1c[nH]c2ccccc12)C(=O)N[C@H](C(=O)N[C@@H](CCCCN)C(=O)N[C@@H](CCCNC(=N)N)C(=O)N[C@@H](CCCCN)C(=O)N[C@@H](CCCNC(=N)N)C(=O)N[C@@H](CCC(N)=O)C(=O)N[C@@H](CCC(N)=O)C(N)=O)[C@@H](C)CC)[C@@H](C)CC)[C@@H](C)O)[C@@H](C)O)C(C)C)C(C)C [mellitin]
- release of β-lactamase (Nitrocefin absorption at 486 nm) [1]: a reaction of Nitrocefin to β-lactamase occurs almost immediately

SMILES: NCCCCN [putrescine]
- uptake of [14C] putrescine (E. coli K12): ability to transport significant amounts
- uptake of [14C] putrescine (Y. pestis KIM6+ [2]): ability to transport significant amounts

SMILES: N=C(NCCCNCCCCCCCNCCCNC(=N)NC(=N)NCCC(c1ccccc1)c1ccccc1)NC(=N)NCCC(c1ccccc1)c1ccccc1 [XBI-54-13B]
- MIC (Y. pestis KIM6+ [3]): 1.56 µg/mL (≈ 1.95 µM)
- release of β-lactamase (Nitrocefin absorption at 486 nm) [1]: quickly causes a release of β-lactamase

SMILES: NCCCCNCCCN [spermidine]
- transport of [14C] spermidine (E. coli K12): able to transport a significant amount
- transport of [14C] spermidine (Y. pestis KIM6+ [2]): effectively unable to transport
